Results published in ChEMBL document CHEMBL1129000, “Inhibitors of acyl-CoA: cholesterol O-acyl transferase (ACAT) as hypocholesterolemic agents. The synthesis and biological activity of a series of malonester amides” (Bioorg Med Chem Lett, 1996).
The source made the active and inactive calls. The rule behind the calls is not given here.

Legend:
[1] = biological target: O-acyltransferase (Oryctolagus cuniculus, UniProt G1SFD9); assay: In vitro inhibitory activity against Acyl coenzyme A:cholesterol acyltransferase in intestinal microsomes isolated from cholesterol fed rabbits (IAI).; design: species or system Intestine
[2] = tested on: Rattus norvegicus; assay: Tested for the percentage change in non HDL-C in pre-established hypercholesterolemia (CPCC) model at dose of 3 mg/kg.; assay type: functional
[3] = tested on: Rattus norvegicus; assay: Tested for the percentage change in non HDL-C in pre-established hypercholesterolemia (CPCC) model at a dose of 0.1 mg/kg; assay type: functional
[4] = tested on: Rattus norvegicus; assay: In vivo percent change in the total cholesterol after consumption of a single high fat, high cholesterol meal by rats; assay type: functional
[5] = tested on: Rattus norvegicus; assay: Tested for the percentage change in non HDL-C in pre-established hypercholesterolemia (CPCC) model fat at a dose of 1 mg/kg; assay type: functional
[6] = tested on: Rattus norvegicus; assay: Tested for the percentage change in HDL in pre-established hypercholesterolemia (CPCC) model at a dose of 3 mg/kg.; assay type: functional
[7] = tested on: Rattus norvegicus; assay: Tested for the percentage change in HDL in pre-established hypercholesterolemia (CPCC) model at a dose of 1 mg/kg; assay type: functional
[8] = tested on: Rattus norvegicus; assay: Tested for the percentage change in HDL in pre-established hypercholesterolemia (CPCC) model at a dose of 0.1 mg/kg; assay type: functional
[9] = tested on: Rattus norvegicus; assay: Tested for the percentage change in HDL in pre-established hypercholesterolemia (CPCC) model fat at a dose of 30 mg/kg; assay type: functional
[10] = tested on: Rattus norvegicus; assay: Tested for the percentage change in non HDL-C in pre-established hypercholesterolemia (CPCC) model at a dose of 30 mg/kg; assay type: functional
[11] = tested on: Rattus norvegicus; assay: Tested for the percentage change in non HDL-C in pre-established hypercholesterolemia (CPCC) model fat at a dose of 3 mg/kg (p<0.05); assay type: functional
[12] = tested on: Rattus norvegicus; assay: Tested for the percentage change in non HDL-C in pre-established hypercholesterolemia (CPCC) model at dose of 10 mg/kg (p<0.05); assay type: functional
[13] = tested on: Rattus norvegicus; assay: Tested for the percentage change in HDL in pre-established hypercholesterolemia (CPCC) model at a dose of 10 mg/kg (p<0.05); assay type: functional
[14] = tested on: Rattus norvegicus; assay: Tested for the percentage change in HDL in pre-established hypercholesterolemia (CPCC) model at a dose of 1 mg/kg (p<0.05); assay type: functional
[15] = tested on: Rattus norvegicus; assay: Tested for the percentage change in HDL in pre-established hypercholesterolemia (CPCC) model at a dose of 3 mg/kg (p<0.05); assay type: functional
[16] = tested on: Rattus norvegicus; assay: Tested for the percentage change in non HDL-C in pre-established hypercholesterolemia (CPCC) model at a dose of 1 mg/kg (p<0.05); assay type: functional
[17] = tested on: Rattus norvegicus; assay: Tested for the percentage change in non HDL in pre-established hypercholesterolemia (CPCC) model fat at a dose of 30 mg/kg; assay type: functional
[18] = tested on: Rattus norvegicus; assay: Tested for the percentage change in non HDL-C in pre-established hypercholesterolemia (CPCC) model fat at a dose of 3 mg/kg; assay type: functional
[19] = tested on: Rattus norvegicus; assay: Tested for the percentage change in HDL in pre-established hypercholesterolemia (CPCC) model at a dose of 10 mg/kg.; assay type: functional
[20] = tested on: Rattus norvegicus; assay: Tested for the percentage change in HDL in pre-established hypercholesterolemia (CPCC) model at a dose of 1 mg/kg; No change; assay type: functional, organism-based; design: dose 1 mg/kg
[21] = tested on: Rattus norvegicus; assay: Tested for the percentage change in non HDL-C in pre-established hypercholesterolemia (CPCC) model at a dose of 1 mg/kg; assay type: functional
[22] = tested on: Rattus norvegicus; assay: Tested for the percentage change in HDL in pre-established hypercholesterolemia (CPCC) model at a dose of 3 mg/kg; assay type: functional
[23] = tested on: Rattus norvegicus; assay: Tested for the percentage change in non HDL-C in pre-established hypercholesterolemia (CPCC) model at dose of 10 mg/kg.; assay type: functional
[24] = tested on: Rattus norvegicus; assay: Tested for the percentage change in non HDL in pre-established hypercholesterolemia (CPCC) model fat at a dose of 30 mg/kg; Non significant; assay type: functional, organism-based; design: dose 30 mg/kg

O-acyltransferase, sequence (G1SFD9 1-524): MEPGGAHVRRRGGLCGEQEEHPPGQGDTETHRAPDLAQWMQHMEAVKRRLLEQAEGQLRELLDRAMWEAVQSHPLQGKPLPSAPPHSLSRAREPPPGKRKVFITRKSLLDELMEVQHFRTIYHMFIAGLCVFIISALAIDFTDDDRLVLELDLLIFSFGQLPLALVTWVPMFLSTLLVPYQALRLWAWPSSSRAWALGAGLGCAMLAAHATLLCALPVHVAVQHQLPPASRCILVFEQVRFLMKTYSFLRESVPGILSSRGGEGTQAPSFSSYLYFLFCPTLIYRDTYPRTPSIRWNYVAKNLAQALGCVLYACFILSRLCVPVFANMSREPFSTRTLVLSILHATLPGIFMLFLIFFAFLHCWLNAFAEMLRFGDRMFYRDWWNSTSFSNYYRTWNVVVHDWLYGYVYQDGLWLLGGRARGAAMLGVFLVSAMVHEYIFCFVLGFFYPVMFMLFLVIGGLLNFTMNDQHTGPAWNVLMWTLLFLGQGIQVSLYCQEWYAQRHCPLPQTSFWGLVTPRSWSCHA

| SMILES | IC50 [1] [nM] | Change [4] [%] | other results |
| --- | --- | --- | --- |
| CC(C)c1cccc(C(C)C)c1NC(=O)CC(=O)O | > 5000 | – | – |
| CC(C)c1cccc(C(C)C)c1OC(=O)CC(=O)Nc1c(F)cc(F)cc1F | > 5000 | -9 | – |
| CC(C)c1cccc(C(C)C)c1NC(=O)CC(=O)OC(c1ccccc1)c1ccccc1 | 38 | -41 | – |
| CC(C)c1cccc(C(C)C)c1OC(=O)CC(=O)Nc1ccccc1 | > 5000 | – | – |
| COc1cc(OC)c(OC(=O)CC(=O)Nc2c(C(C)C)cccc2C(C)C)c(OC)c1 | 320 | -9 | – |
| CCCCCCCCCCCCC(C)OC(=O)CC(=O)Nc1c(C(C)C)cccc1C(C)C (stereo not given) | – | -54 | Change [11]: -73%; Change [12]: -83%; Change [13]: 114%; Change [14]: 64%; Change [15]: 157%; Change [16]: -54% |
| CC(C)c1cccc(C(C)C)c1OC(=O)CC(=O)Nc1c(N(C)C)cccc1N(C)C | 71 | -29 | – |
| CC(C)c1cccc(C(C)C)c1OC(=O)CC(=O)Nc1c(F)cccc1F | 6200 | 4 | – |
| CC(C)c1cccc(C(C)C)c1NC(=O)CC(=O)OC(c1ccccc1)c1ccccn1 (stereo not given) | > 5000 | – | – |
| CCOC(=O)CC(=O)Nc1c(C(C)C)cccc1C(C)C | 1800 | – | – |
| CCCCCC(C)OC(=O)CC(=O)Nc1c(C(C)C)cccc1C(C)C (stereo not given) | 27 | -46 | – |
| CCCCCCCCCCCCCCC(C)OC(=O)CC(=O)Nc1c(C(C)C)cccc1C(C)C (stereo not given) | 11 | -60 | Change [2]: -2%; Change [3]: -8%; Change [5]: 7%; Change [6]: -24%; Change [7]: 13%; Change [8]: -12% |
| COc1cc(OC)c(NC(=O)CC(=O)Oc2c(C(C)C)cccc2C(C)C)c(OC)c1 | 1000 | -29 | – |
| COc1cccc(OC)c1OC(=O)CC(=O)Nc1c(C(C)C)cccc1C(C)C | 1700 | 5 | – |
| CC(C)c1cccc(C(C)C)c1NC(=O)CC(=O)Oc1c(C(C)C)cccc1C(C)C | 42 | <-50 | Change [24]: Not significant; Change [10]: 9% |
| CCCCCCCCC(C)OC(=O)CC(=O)Nc1c(C(C)C)cccc1C(C)C (stereo not given) | 12 | -61 | – |
| CC(C)c1cccc(C(C)C)c1NC(=O)CC(=O)Oc1c(-c2ccccc2)cccc1-c1ccccc1 | 67 | -41 | – |
| CC(C)c1cccc(C(C)C)c1OC(=O)CC(=O)Nc1ccc(F)cc1F | 6400 | – | – |
| CC(C)c1cccc(C(C)C)c1NC(=O)CC(=O)OC(C)(C)C | 130 | -24 | – |
| CC(C)c1cccc(C(C)C)c1NC(=O)CC(=O)OC(c1ccccn1)c1ccccn1 | > 5000 | -55 | – |
| Cc1cccc(C)c1NC(=O)CC(=O)Oc1c(C(C)C)cccc1C(C)C | 210 | 5 | – |
| CCCCC(C)(C)OC(=O)CC(=O)Nc1c(C(C)C)cccc1C(C)C | 15 | -52 | – |

Continued, in another order:

| IC50 [1] [nM] | SMILES | Change [4] [%] | other results |
| --- | --- | --- | --- |
| 12 | CCCCCCCCCCCCC(C)(C)OC(=O)CC(=O)Nc1c(C(C)C)cccc1C(C)C | -72 | Change [2]: -19%; Change [3]: -11%; Change [5]: -19%; Change [6]: -13%; Change [7]: 6%; Change [8]: -12% |
| 260 | CCCCCCCCOC(=O)CC(=O)Nc1c(C(C)C)cccc1C(C)C | -43 | – |
| 11 | CCCCCCCCCCCCOC(=O)CC(=O)Nc1c(C(C)C)cccc1C(C)C | -52 | Change [9]: -21%; Change [10]: -8% |
| 35 | CCCCCCCCCCCCCCCCOC(=O)CC(=O)Nc1c(C(C)C)cccc1C(C)C | -56 | – |
| 4 | CCCCCCCCCCCC[C@@H](C)OC(=O)CC(=O)Nc1c(C(C)C)cccc1C(C)C | -67 | – |
| 15 | CCCCCCCCCCCCCCOC(=O)CC(=O)Nc1c(C(C)C)cccc1C(C)C | -61 | Change [17]: 6%; Change [10]: -11% |
| 6 | CCCCCCCCCCC(C)OC(=O)CC(=O)Nc1c(C(C)C)cccc1C(C)C (stereo not given) | -70 | Change [18]: -40%; Change [19]: 29%; Change [20]: inactive; Change [21]: -15%; Change [22]: 36%; Change [23]: -51% |
| 4 | CCCCCCCCCCCC[C@H](C)OC(=O)CC(=O)Nc1c(C(C)C)cccc1C(C)C | -66 | – |
| 53 | CCCCCCCCCCOC(=O)CC(=O)Nc1c(C(C)C)cccc1C(C)C | -37 | – |
| 810 | CCCCCCOC(=O)CC(=O)Nc1c(C(C)C)cccc1C(C)C | -29 | – |
| 53 | CCCCCCCCCCCCCCCCCCOC(=O)CC(=O)Nc1c(C(C)C)cccc1C(C)C | -16 | – |
